Data reported in publication PMC7356157, “Shorter Antibacterial Peptide Having High Selectivity for E. coli Membranes and Low Potential for Inducing Resistance” (Microorganisms, 2020).
≈ marks a conversion by molar mass, not a printed value. Read-outs that look alike come from different tables or passages of the source. Blank lines part the entries; values can stand above or below the compound they belong to. No end group written: not given here.

Columns and labels:
[1] = tested on: E. coli clinical isolate 44; test: Resistance profile of clinical isolate (VITEK-2); type: cell-based; settings: Escherichia coli, isolate from blood
From the text: (§1) Approximately 50 bacterial samples were then collected from E. coli-infected patients for evaluating activity of the peptides against some clinical isolates. These samples were identified and biochemically and metabolically characterised using the VITEK-2 equipment. Isolates were profiled regarding their resistance or susceptibility to a panel of conventionally used antibiotics.

[2] = tested on: E. coli clinical isolate 4; test: Resistance profile of clinical isolate (VITEK-2); type: cell-based; settings: Escherichia coli, isolate from urine
From the text: as §1

[3] = tested on: E. coli clinical isolate 40; test: Resistance profile of clinical isolate (VITEK-2); type: cell-based; settings: Escherichia coli, isolate from blood
From the text: as §1

[4] = tested on: P. aeruginosa 27853; test: MIC by broth microdilution; type: cell-based; settings: MHB, 18 h, 37 °C
[5] = tested on: human red blood cells (hRBC); test: Haemolytic activity (MHC); type: cell-based; settings: 5% v/v hRBC in 1X PBS, 200–0.39 µM, 1 h, 37 °C, absorbance 560 nm
Protocol: A haemolytic activity assay was used for determining whether peptides acted on hRBC membrane by calculating the minimum haemolytic concentration (MHC). Briefly, 100 µL serial dilutions of peptides were incubated in a 96-well plate with an equal volume of a fresh hRBC suspension at 5% v/v in 1X PBS (200–0.39 µM final peptide concentrations). The samples were spun at 1000× g for 5 min after having been incubated at 37 °C for 1 h and a Multiskan spectrometer (Thermo Fisher) was used for measuring 100 µL supernatant absorbance at 560 nm. Treated hRBC absorbance 0.1% Triton X-100 or 100% haemolysis was used as positive control.

[6] = tested on: E. coli ATCC 25922; type: cell-based; settings: for MIC E. coli 25922: broth microdilution, MHB, ~5 × 10^5 CFU/mL, 18 h, 37 °C, OD 620 nm, 100 to 0.2 µM
[7] = tested on: E. coli 25922; test: Antibacterial activity in the presence of human sera; type: cell-based
Protocol: The second assay involved peptide dilution in fresh human sera (100%) pre-incubated for 6 h at 37 °C in a humid chamber before putting them in contact with the bacterial inoculum diluted in MHB (~5 × 10^5 CFU/mL). The assay was incubated and read as mentioned in the microdilution section.

[8] = tested on: E. coli ATCC 11775; type: cell-based; settings: broth microdilution
[9] = tested on: E. coli 35218 (ampicillin-resistant ATCC 35218 strain); type: cell-based; settings: broth microdilution
[10] = tested on: E. coli ML35 43827; type: cell-based; settings: broth microdilution
[11] = tested on: E. coli ML35 43827; test: Bactericidal activity (MBC); type: cell-based
Protocol: (§2) Bactericidal activity was evaluated by sowing an aliquot of Luria Bertani agar (LBA) in the wells where no growth had been detected in the MIC assay.

[12] = tested on: E. coli ATCC 25922; test: Bactericidal activity (MBC); type: cell-based; settings: aliquots of no-growth MIC wells on LBA, 18 h, 37 °C; kills 99.9%
Protocol: as §2

[13] = tested on: E. coli N°4 (clinical isolate); settings: clinical isolate from urine, broth microdilution
Protocol: (§3) The standard broth microdilution method was used for determining the peptides’ MIC [41]. […] Bacteria in Müller–Hinton broth (MHB) were used as negative control. […] The MIC was determined as the lowest peptide concentration at which bacterial growth was not detected.
as §1

[14] = tested on: E. coli N°44 (clinical isolate); settings: clinical isolate from blood, ESBL (+), broth microdilution
Protocol: as §3, §1

[15] = tested on: E. coli N°40 (clinical isolate); settings: clinical isolate from blood, broth microdilution
Protocol: as §3, §1

[16] = tested on: E. coli
Protocol: (§4) The checkerboard method was used for evaluating peptide antibacterial activity in combination with antibiotics [43]. […] Absorbance was measured at 620 nm and individual peptide and antibiotic MIC and combined MIC were obtained. […] The fractional inhibitory concentration index (FICI) was then calculated as the sum of peptide FIC + antibiotic FIC. A ≤ 0.5 FICI indicated synergy, 0.5 to ≤4 FICI indifference, and >4 FICI antagonism [45].
(§5) The results were interpreted by taking the lowest checkerboard FIC index (previously reported method 3) [44].

[17] = tested on: E. coli; remark: listed apart in the source
Protocol: as §4, §5

[18] = tested on: E. coli N°44 (clinical isolate); type: cell-based
Protocol: as §2
Approximately 50 bacterial samples were then collected from E. coli-infected patients for evaluating activity of the peptides against some clinical isolates. These samples were identified and biochemically and metabolically characterised using the VITEK-2 equipment. Isolates were profiled regarding their resistance or susceptibility to a panel of conventionally used antibiotics. Three E. coli isolates having different resistance profiles were then selected following such characterisation (Appendix A): • Isolate 4 (from urine): extended spectrum beta-lactamase (ESBL) (-), resistant to ampicillin, quinolones and co-trimoxazole. • Isolate 40 (from blood): ESBL (-), resistant to ampicillin, 1st-generation cephalosporins and co-trimoxazole. • Isolate 44 (from blood): ESBL (+), resistant to aminoglycosides, quinolones, β-lactams (including 1st-, 3rd- and 4th-generation cephalosporins).

[19] = tested on: E. coli 35218; type: cell-based
Protocol: as §2

MIC [1]: ≥ 64 µg/mL
MIC [2]: 4 µg/mL (≈ 10.1 µM)
MIC [3]: 16 µg/mL (≈ 40.4 µM)
Compound: CC(=O)OCC1=C(C(=O)O)N2C(=O)[C@@H](NC(=O)Cc3cccs3)[C@H]2SC1 [Cephalothin]

MIC [2]: ≤ 1 µg/mL
Compound: CO/N=C(\C(=O)N[C@@H]1C(=O)N2C(C(=O)[O-])=C(C[N+]3(C)CCCC3)CS[C@H]12)c1csc(N)n1 [Cefepime]

MIC [1]: ≤ 4 µg/mL
MIC [2]: ≤ 4 µg/mL
MIC [3]: ≤ 4 µg/mL
Compound: CO[C@@]1(NC(=O)Cc2cccs2)C(=O)N2C(C(=O)O)=C(COC(N)=O)CS[C@@H]21 [Cefoxitin]

MIC E. coli 11775 (antibiotics) [8]: <0.016 µg/mL
MIC E. coli 35218 (antibiotics) [9]: >16 µg/mL
MIC [1]: ≥ 32 µg/mL
MIC [2]: ≥ 32 µg/mL
MIC [3]: ≥ 32 µg/mL
MIC E. coli ML35 43827 (antibiotics) [10]: <0.016 µg/mL
Compound: CC1(C)S[C@@H]2[C@H](NC(=O)[C@H](N)c3ccccc3)C(=O)N2[C@H]1C(=O)O [Ampicillin, ampicillin, reference compound]

MIC [1]: ≤ 16 µg/mL
MIC [2]: ≤ 16 µg/mL
MIC [3]: ≤ 16 µg/mL
Compound: O=C1CN(/N=C/c2ccc([N+](=O)[O-])o2)C(=O)N1 [Nitrofurantoin]

MIC [1]: ≤ 0.25 µg/mL
MIC [2]: ≤ 0.25 µg/mL
MIC [3]: ≤ 0.25 µg/mL
Compound: C[C@@H](O)[C@H]1C(=O)N2C(C(=O)O)=C(S[C@@H]3CN[C@H](C(=O)N(C)C)C3)[C@H](C)[C@H]12 [Meropenem]

More lines, now with the values behind:

Compound: KKMKKALQYIKLLKE-NH2 [Peptide 35409-3]
MIC P. aeruginosa 27853 [4]: >100 µM
MHC (minimum haemolytic concentration) [5]: >200 µM
MIC E. coli 25922 [6]: >100 µM

Compound: O=C(O)c1cn(C2CC2)c2cc(N3CCNCC3)c(F)cc2c1=O [Ciprofloxacin, ciprofloxacin, reference compound]
MIC ([7]; Escherichia coli, 25922, read-out: MIC against E. coli 25922, Serum (6 h Pre-Incubation) (ciprofloxacin), fresh human sera (100%), 6 h pre-incubation at 37 °C): 0.004 µg/mL

Compound: ALQYIKLLKE-NH2 [Peptide 35409-6]
MIC P. aeruginosa 27853 [4]: >100 µM
MHC (minimum haemolytic concentration) [5]: >200 µM
MIC E. coli 25922 [6]: >100 µM

Compound: RKKKMKKALQY-NH2 [Peptide 35409-15]
MIC P. aeruginosa 27853 [4]: >100 µM
MHC (minimum haemolytic concentration) [5]: 200 µM
MIC E. coli 25922 [6]: >100 µM

Compound: RYRRKKK-NH2 [Peptide 35409-12]
MIC P. aeruginosa 27853 [4]: >100 µM
MHC (minimum haemolytic concentration) [5]: >200 µM
MIC E. coli 25922 [6]: >100 µM

Compound: RYRRKKKMKKALQYIKL-NH2 [Peptide 35409-8]
MIC P. aeruginosa 27853 [4]: >100 µM
MHC (minimum haemolytic concentration) [5]: >200 µM
MIC E. coli 25922 [6]: >100 µM

Compound: CO/N=C(\C(=O)N[C@@H]1C(=O)N2C(C(=O)O)=C(COC(C)=O)CS[C@H]12)c1csc(N)n1 [Cefotaxime]
MIC [1]: ≥ 64 µg/mL
MIC [2]: ≤ 1 µg/mL
MIC [3]: ≤ 1 µg/mL

Compound: KKKMKKALQYIKLLKE-NH2 [Peptide 35409-2]
MIC E. coli 11775 [8]: >100 µM
MIC E. coli 35218 [9]: 12.5 µM
MBC E. coli ML35 43827 [11]: 12.5 µM
MBC E. coli 25922 [12]: 25 µM
MIC E. coli N°4 [13]: >100 µM
MIC E. coli N°44 [14]: 50 µM
MIC E. coli N°40 [15]: 50 µM
MIC P. aeruginosa 27853 [4]: >100 µM
MHC (minimum haemolytic concentration) [5]: >200 µM
FIC Index ([16]; peptide + gentamicin, lowest checkerboard FIC index (method 3)): 0.75
FIC P (peptide) ([16]; with gentamicin): 0.25
FIC Index ([17]; peptide + ciprofloxacin, lowest checkerboard FIC index (method 3)): 3
FIC P (peptide) ([17]; with ciprofloxacin): 1
MIC E. coli ML35 43827 [10]: 6 µM
MIC E. coli 25922 [6]: 25 µM
MIC against E. coli 25922, MHB ([6]; no serum): 25 µM
MBC E. coli N°44 [18]: > 100 µM
MIC against E. coli 25922, Serum (without Pre-Incubation) ([7]; peptide diluted in fresh human sera (100%), then inoculum in MHB ~5 × 10^5 CFU/mL, 18 h, 37 °C): 25 µM
MBC E. coli 35218 [19]: 25 µM
